“And” between values parts separate entries of the source, which are not always exact repeats. Equal values may be shown once.
System: 377384-186-R-J1-PDC complex spheroid viability
Assay: Anticancer human tumor 377384-186-R-J1-PDC patient-derived pancreatic carcinoma cell line growth inhibition [RAS]
Conditions: for viability, T/C: stronger effect = lower value
How it was run: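 Tumour cells grown as complex spheroids with HUVEC endothelial cells and mesenchymal stem cells, treated with RAS pathway inhibitor combinations. Each agent spans half-log steps from near clinical Cmax, or 10 microM where Cmax is unknown.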

[1] = curve of first compound, second compound 0.000949 µM
[2] = curve of first compound, second compound 0.003 µM
[3] = curve of first compound, second compound 0.00949 µM
[4] = curve of first compound, second compound 0.03 µM
[5] = curve of first compound, second compound 0.0949 µM
[6] = curve of first compound, second compound 0.3 µM
[7] = second compound 0.000949 µM, first compound 0.00316 µM
[8] = second compound 0.000949 µM, first compound 0.01 µM
[9] = second compound 0.000949 µM, first compound 0.0316 µM
[10] = second compound 0.000949 µM, first compound 0.1 µM
[11] = second compound 0.003 µM, first compound 0.00316 µM
[12] = second compound 0.003 µM, first compound 0.01 µM
[13] = second compound 0.003 µM, first compound 0.0316 µM
[14] = second compound 0.003 µM, first compound 0.1 µM
[15] = second compound 0.00949 µM, first compound 0.00316 µM
[16] = second compound 0.00949 µM, first compound 0.01 µM
[17] = second compound 0.00949 µM, first compound 0.0316 µM
[18] = second compound 0.00949 µM, first compound 0.1 µM
[19] = second compound 0.03 µM, first compound 0.00316 µM
[20] = second compound 0.03 µM, first compound 0.01 µM
[21] = second compound 0.03 µM, first compound 0.0316 µM
[22] = second compound 0.03 µM, first compound 0.1 µM
[23] = second compound 0.0949 µM, first compound 0.00316 µM
[24] = second compound 0.0949 µM, first compound 0.01 µM
[25] = second compound 0.0949 µM, first compound 0.0316 µM
[26] = second compound 0.0949 µM, first compound 0.1 µM
[27] = second compound 0.3 µM, first compound 0.00316 µM
[28] = second compound 0.3 µM, first compound 0.01 µM
[29] = second compound 0.3 µM, first compound 0.0316 µM
[30] = second compound 0.3 µM, first compound 0.1 µM
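Also: spheroids exposed to compounds for seven days before readout.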

Which results are given for `CC(C)n1nc(-c2ccc3oc(N)nc3c2)c2c(N)ncnc21` + CCn1c(-c2cccnc2C(C)OC)c2c3cc(ccc31)N1CCOC(CC(NC(=O)C(C(C)C)N(C)C(=O)C3(F)CCN(C(=O)C#CC(C)(C)N(C)C)CC3)C(=O)N3CCCC(N3)C(=O)OCC(C)(C)C2)C1?
IC50 [1]: > 0.1 µM; IC50 [2]: > 0.1 µM; IC50 [3]: > 0.1 µM; IC50 [4]: > 0.1 µM; IC50 [5]: > 0.1 µM; IC50 [6]: 0.00768 µM; viability, T/C (second compound 0.000949 µM, first compound 0.000316 µM): 96.9%; viability, T/C (second compound 0.000949 µM, first compound 0.001 µM): 92%; viability, T/C [7]: 80.3%; viability, T/C [8]: 62.1%; viability, T/C [9]: 31.9%; viability, T/C [10]: 99%; viability, T/C (second compound 0.003 µM, first compound 0.000316 µM): 93.8%; viability, T/C (second compound 0.003 µM, first compound 0.001 µM): 84.8%; viability, T/C [11]: 86.8%; viability, T/C [12]: 59.4%; viability, T/C [13]: 37.1%; viability, T/C [14]: 98.4%; viability, T/C (second compound 0.00949 µM, first compound 0.000316 µM): 96.2%; viability, T/C (second compound 0.00949 µM, first compound 0.001 µM): 91.7%; viability, T/C [15]: 66.6%; viability, T/C [16]: 55.8%; viability, T/C [17]: 34.1%; viability, T/C [18]: 89.8%; viability, T/C (second compound 0.03 µM, first compound 0.000316 µM): 86.6%; viability, T/C (second compound 0.03 µM, first compound 0.001 µM): 78.1%; viability, T/C [19]: 72.3%; viability, T/C [20]: 53.8%; viability, T/C [21]: 33.7%; viability, T/C [22]: 101%; viability, T/C (second compound 0.0949 µM, first compound 0.000316 µM): 77%; viability, T/C (second compound 0.0949 µM, first compound 0.001 µM): 82.2%; viability, T/C [23]: 71.4%; viability, T/C [24]: 55%; viability, T/C [25]: 37.9%; viability, T/C [26]: 69.3%; viability, T/C (second compound 0.3 µM, first compound 0.000316 µM): 68.8%; viability, T/C (second compound 0.3 µM, first compound 0.001 µM): 74.7%; viability, T/C [27]: 66.8%; viability, T/C [28]: 45.7%; viability, T/C [29]: 27.2%; viability, T/C [30]: 56.1%

How did the IC50 (curve of first compound, second compound 0.0316 µM) turn out when `CCc1c2c(nc3ccc(O)cc13)-c1cc3c(c(=O)n1C2)COC(=O)[C@]3(O)CC` + C#Cc1c(F)ccc2cc(O)cc(-c3ncc4c(N5CC6CCC(C5)N6)nc(OCC56CCCN5CC(F)C6)nc4c3F)c12 was run?
Its IC50 is < 0.000949 µM.

And the IC50 (curve of first compound, second compound 0.1 µM)?
Its IC50 is < 0.000949 µM.

What about the IC50 (curve of first compound, second compound 0.316 µM) of the same compound?
The IC50 was < 0.000949 µM.

And the IC50 (curve of first compound, second compound 1 µM)?
Its IC50 is < 0.000949 µM.

What about the IC50 (curve of first compound, second compound 3.16 µM) of the same compound?
Its IC50 is < 0.000949 µM.

And the IC50 (curve of first compound, second compound 10 µM)?
Its IC50 is < 0.000949 µM.

And the viability, T/C (second compound 0.0316 µM, first compound 0.000949 µM)?
The viability, T/C was 19.9%.

What about the viability, T/C (second compound 0.0316 µM, first compound 0.003 µM) of the same compound?
Its viability, T/C is 11.3%.

What about the viability, T/C (second compound 0.0316 µM, first compound 0.00949 µM) of the same compound?
The viability, T/C was 6.54%.

What about the viability, T/C (second compound 0.0316 µM, first compound 0.03 µM) of the same compound?
Its viability, T/C is 4.38%.

What about the viability, T/C (second compound 0.0316 µM, first compound 0.0949 µM) of the same compound?
Its viability, T/C is 1.63%.

What about the viability, T/C (second compound 0.0316 µM, first compound 0.3 µM) of the same compound?
Its viability, T/C is 1.45%.

And the viability, T/C (second compound 0.1 µM, first compound 0.000949 µM)?
The viability, T/C was 10.2%.

And the viability, T/C (second compound 0.1 µM, first compound 0.003 µM)?
Its viability, T/C is 5.47%.

And the viability, T/C (second compound 0.1 µM, first compound 0.00949 µM)?
The viability, T/C was 3.3%.

What about the viability, T/C (second compound 0.1 µM, first compound 0.03 µM) of the same compound?
Its viability, T/C is 2.38%.

And the viability, T/C (second compound 0.1 µM, first compound 0.0949 µM)?
Its viability, T/C is 1.62%.

And the viability, T/C (second compound 0.1 µM, first compound 0.3 µM)?
Its viability, T/C is 1.48%.

And the viability, T/C (second compound 0.316 µM, first compound 0.000949 µM)?
The viability, T/C was 4.45%.

And the viability, T/C (second compound 0.316 µM, first compound 0.003 µM)?
The viability, T/C was 3.34%.

What about the viability, T/C (second compound 0.316 µM, first compound 0.00949 µM) of the same compound?
Its viability, T/C is 2.87%.

What about the viability, T/C (second compound 0.316 µM, first compound 0.03 µM) of the same compound?
Its viability, T/C is 1.65%.

And the viability, T/C (second compound 0.316 µM, first compound 0.0949 µM)?
The viability, T/C was 1.51%.

What about the viability, T/C (second compound 0.316 µM, first compound 0.3 µM) of the same compound?
Its viability, T/C is 1.36%.

What about the viability, T/C (second compound 1 µM, first compound 0.000949 µM) of the same compound?
Its viability, T/C is 3.89%.

And the viability, T/C (second compound 1 µM, first compound 0.003 µM)?
Its viability, T/C is 2.04%.

And the viability, T/C (second compound 1 µM, first compound 0.00949 µM)?
Its viability, T/C is 2.4%.

And the viability, T/C (second compound 1 µM, first compound 0.03 µM)?
Its viability, T/C is 1.31%.

And the viability, T/C (second compound 1 µM, first compound 0.0949 µM)?
The viability, T/C was 1.14%.

What about the viability, T/C (second compound 1 µM, first compound 0.3 µM) of the same compound?
The viability, T/C was 1.05%.

What about the viability, T/C (second compound 3.16 µM, first compound 0.000949 µM) of the same compound?
Its viability, T/C is 1.66%.

What about the viability, T/C (second compound 3.16 µM, first compound 0.003 µM) of the same compound?
The viability, T/C was 2.07%.

What about the viability, T/C (second compound 3.16 µM, first compound 0.00949 µM) of the same compound?
Its viability, T/C is 2.02%.

What about the viability, T/C (second compound 3.16 µM, first compound 0.03 µM) of the same compound?
Its viability, T/C is 1.73%.

And the viability, T/C (second compound 3.16 µM, first compound 0.0949 µM)?
The viability, T/C was 1.46%.

And the viability, T/C (second compound 3.16 µM, first compound 0.3 µM)?
Its viability, T/C is 0.91%.

What about the viability, T/C (second compound 10 µM, first compound 0.000949 µM) of the same compound?
Its viability, T/C is 1.73%.

What about the viability, T/C (second compound 10 µM, first compound 0.003 µM) of the same compound?
Its viability, T/C is 0.98%.

What about the viability, T/C (second compound 10 µM, first compound 0.00949 µM) of the same compound?
Its viability, T/C is 1.39%.

What about the viability, T/C (second compound 10 µM, first compound 0.03 µM) of the same compound?
The viability, T/C was 1.15%.

What about the viability, T/C (second compound 10 µM, first compound 0.0949 µM) of the same compound?
Its viability, T/C is 0.97%.

And the viability, T/C (second compound 10 µM, first compound 0.3 µM)?
The viability, T/C was 0.48%.

Which results are given for `C=CC(=O)Nc1cc(Nc2nccc(-c3cn(C)c4ccccc34)n2)c(OC)cc1N(C)CCN(C)C` + CCn1c(-c2cccnc2C(C)OC)c2c3cc(ccc31)N1CCOC(CC(NC(=O)C(C(C)C)N(C)C(=O)C3(F)CCN(C(=O)C#CC(C)(C)N(C)C)CC3)C(=O)N3CCCC(N3)C(=O)OCC(C)(C)C2)C1?
IC50 [1]: 0.727 µM; IC50 [2]: 0.694 µM; IC50 [3]: 0.682 µM; IC50 [4]: 0.699 µM; IC50 [5]: 0.598 µM; IC50 [6]: 0.639 µM; viability, T/C [7]: 107%; viability, T/C [8]: 83.9%; viability, T/C [9]: 94.3%; viability, T/C [10]: 84.5%; viability, T/C (second compound 0.000949 µM, first compound 0.316 µM): 77.6%; viability, T/C (second compound 0.000949 µM, first compound 1 µM): 40%; viability, T/C [11]: 93.3%; viability, T/C [12]: 96.2%; viability, T/C [13]: 101%; viability, T/C [14]: 80%; viability, T/C (second compound 0.003 µM, first compound 0.316 µM): 62.9%; viability, T/C (second compound 0.003 µM, first compound 1 µM): 44.2%; viability, T/C [15]: 101%; viability, T/C [16]: 100%; viability, T/C [17]: 90.5%; viability, T/C [18]: 84.6%; viability, T/C (second compound 0.00949 µM, first compound 0.316 µM): 64.1%; viability, T/C (second compound 0.00949 µM, first compound 1 µM): 42.6%; viability, T/C [19]: 104%; viability, T/C [20]: 99.1%; viability, T/C [21]: 97.6%; viability, T/C [22]: 75.6%; viability, T/C (second compound 0.03 µM, first compound 0.316 µM): 69.9%; viability, T/C (second compound 0.03 µM, first compound 1 µM): 41.9%; viability, T/C [23]: 91.3%; viability, T/C [24]: 90.2%; viability, T/C [25]: 85%; viability, T/C [26]: 76.7%; viability, T/C (second compound 0.0949 µM, first compound 0.316 µM): 66%; viability, T/C (second compound 0.0949 µM, first compound 1 µM): 37.7%; viability, T/C [27]: 77.7%; viability, T/C [28]: 81%; viability, T/C [29]: 80.7%; viability, T/C [30]: 82.4%; viability, T/C (second compound 0.3 µM, first compound 0.316 µM): 64.3%; viability, T/C (second compound 0.3 µM, first compound 1 µM): 40.9%

Which results are given for `C[C@@H](NC(=O)c1ncnc(N)c1Cl)c1ncc(C(=O)Nc2cc(C(F)(F)F)c(Cl)cn2)s1`?
viability, T/C (compound 0.0316 µM): 95.1% [middle of 4 runs]; viability, T/C (compound 0.1 µM): 99.2% [middle of 4 runs]; viability, T/C (compound 1 µM): 117% (2×) and 109% and 132%; IC50 (curve of compound): > 10 µM

From PubChem BioAssay AID2060903 (Molecular Pharmacology Branch, DTP, NCI, 2025)
